Species on record: Rattus norvegicus
Assay: Open TG-GATES - Regimen: Daily Repeat
Assay type: toxicity, organism-based, Sprague-Dawley
Set-up: regimen Daily Repeat, gender Male, age 6 weeks
Conditions: in vivo, po, 15 mg/kg, route gavage, dose level Low; for APTT / Bas / Eos / Fbg / Hb / Ht / Lym / MCH / MCHC / MCV / Mono / Neu / PT / Plat / RBC / Ret / WBC: tissue Blood; for KIDNEY_L / KIDNEY_R / KIDNEY_TOTAL: tissue Kidney; for LIVER: tissue Liver; for A/G / ALP / ALT / AST / BUN / CRE / Ca / Cl / DBIL / GLC / IP / K / LDH / Na / PL / RALB / TBIL / TC / TG / TP / gamma-GTP: tissue Plasma

CN(C)CCC=C1c2ccccc2CCc2ccccc21 [AMITRIPTYLINE]
TERMINAL_BW (72 h, time 3 day): 224.1 g | APTT (72 h, time 3 day): 16 s | Bas (72 h, time 3 day): 0% | Eos (72 h, time 3 day): 1% | Fbg (72 h, time 3 day): 268.6 mg/dL | Hb (72 h, time 3 day): 13.1 g/dL | Ht (72 h, time 3 day): 40% | Lym (72 h, time 3 day): 76.8% | MCH (72 h, time 3 day): 20.3 pg | MCHC (72 h, time 3 day): 32.7% | MCV (72 h, time 3 day): 62 fL | Mono (72 h, time 3 day): 3% | Neu (72 h, time 3 day): 18.2% | PT (72 h, time 3 day): 16 s | Plat (72 h, time 3 day): 118.8 x10_4/uL | RBC (72 h, time 3 day): 645.4 x10_4/ul | Ret (72 h, time 3 day): 7.3% | WBC (72 h, time 3 day): 97.8 x10_2/uL | KIDNEY_L (72 h, time 3 day): 0.9 g | KIDNEY_R (72 h, time 3 day): 0.9 g | KIDNEY_TOTAL (72 h, time 3 day): 1.8 g | LIVER (72 h, time 3 day): 10.4 g | A/G (72 h, time 3 day): 0.8 | ALP (72 h, time 3 day): 1844.8 IU/L | ALT (72 h, time 3 day): 55.8 IU/L | AST (72 h, time 3 day): 74.6 IU/L | BUN (72 h, time 3 day): 14.2 mg/dL | CRE (72 h, time 3 day): 0.2 mg/dL | Ca (72 h, time 3 day): 11 mg/dL | Cl (72 h, time 3 day): 105.6 meq/L | DBIL (72 h, time 3 day): 0.022 mg/dL | GLC (72 h, time 3 day): 185.2 mg/dL | IP (72 h, time 3 day): 7.7 mg/dL | K (72 h, time 3 day): 4 meq/L | LDH (72 h, time 3 day): 74.6 IU/L | Na (72 h, time 3 day): 143.6 meq/L | PL (72 h, time 3 day): 150.2 mg/dL | RALB (72 h, time 3 day): 2.7 g/dL | TBIL (72 h, time 3 day): 0.06 mg/dL | TC (72 h, time 3 day): 76.2 mg/dL | TG (72 h, time 3 day): 106 mg/dL | TP (72 h, time 3 day): 5.8 g/dL | gamma-GTP (72 h, time 3 day): 0.8 IU/L | TERMINAL_BW ([…], time 7 day): 265.9 g | TERMINAL_BW ([…], time 14 day): 314.4 g | TERMINAL_BW ([…], time 28 day): 400.5 g | APTT ([…], time 7 day): 15.5 s | Bas ([…], time 7 day): 0% | Eos ([…], time 7 day): 1.2% | Fbg ([…], time 7 day): 292 mg/dL | Hb ([…], time 7 day): 13.6 g/dL | Ht ([…], time 7 day): 41.4% | Lym ([…], time 7 day): 79.6% | MCH ([…], time 7 day): 20.6 pg | MCHC ([…], time 7 day): 32.7% | MCV ([…], time 7 day): 62.8 fL | Mono ([…], time 7 day): 3% | Neu ([…], time 7 day): 15.6% | PT ([…], time 7 day): 15.1 s | Plat ([…], time 7 day): 116.5 x10_4/uL | RBC ([…], time 7 day): 659 x10_4/ul | Ret ([…], time 7 day): 6.3% | WBC ([…], time 7 day): 93.6 x10_2/uL | APTT ([…], time 14 day): 17.3 s | Bas ([…], time 14 day): 0.4% | Eos ([…], time 14 day): 1% | Fbg ([…], time 14 day): 289.6 mg/dL | Hb ([…], time 14 day): 14 g/dL | Ht ([…], time 14 day): 42.2% | Lym ([…], time 14 day): 76% | MCH ([…], time 14 day): 20 pg | MCHC ([…], time 14 day): 33.2% | MCV ([…], time 14 day): 60.3 fL | Mono ([…], time 14 day): 2.2% | Neu ([…], time 14 day): 20% | PT ([…], time 14 day): 16 s | Plat ([…], time 14 day): 118.1 x10_4/uL | RBC ([…], time 14 day): 698.6 x10_4/ul | Ret ([…], time 14 day): 4.4% | WBC ([…], time 14 day): 115.2 x10_2/uL | APTT ([…], time 28 day): 21.5 s | Bas ([…], time 28 day): 0.2% | Eos ([…], time 28 day): 1.4% | Fbg ([…], time 28 day): 286.6 mg/dL | Hb ([…], time 28 day): 15.5 g/dL | Ht ([…], time 28 day): 45.4% | Lym ([…], time 28 day): 81.4% | MCH ([…], time 28 day): 19.3 pg | MCHC ([…], time 28 day): 34.1% | MCV ([…], time 28 day): 56.6 fL | Mono ([…], time 28 day): 2% | Neu ([…], time 28 day): 14.2% | PT ([…], time 28 day): 16.1 s | Plat ([…], time 28 day): 97.5 x10_4/uL | RBC ([…], time 28 day): 802.8 x10_4/ul | Ret ([…], time 28 day): 2.5% | WBC ([…], time 28 day): 104.9 x10_2/uL | KIDNEY_L ([…], time 7 day): 1.1 g | KIDNEY_R ([…], time 7 day): 1.1 g | KIDNEY_TOTAL ([…], time 7 day): 2.1 g | KIDNEY_L ([…], time 14 day): 1.2 g | KIDNEY_R ([…], time 14 day): 1.2 g | KIDNEY_TOTAL ([…], time 14 day): 2.4 g | KIDNEY_L ([…], time 28 day): 1.4 g | KIDNEY_R ([…], time 28 day): 1.4 g | KIDNEY_TOTAL ([…], time 28 day): 2.8 g | LIVER ([…], time 7 day): 12.7 g | LIVER ([…], time 14 day): 13.8 g | LIVER ([…], time 28 day): 16.1 g | A/G ([…], time 7 day): 0.8 | ALP ([…], time 7 day): 1784.2 IU/L | ALT ([…], time 7 day): 44.8 IU/L | AST ([…], time 7 day): 70.6 IU/L | BUN ([…], time 7 day): 18.4 mg/dL | CRE ([…], time 7 day): 0.2 mg/dL | Ca ([…], time 7 day): 10.9 mg/dL | Cl ([…], time 7 day): 105.6 meq/L | DBIL ([…], time 7 day): 0.018 mg/dL | GLC ([…], time 7 day): 187.6 mg/dL | IP ([…], time 7 day): 7.7 mg/dL | K ([…], time 7 day): 4.1 meq/L | LDH ([…], time 7 day): 85.8 IU/L | Na ([…], time 7 day): 143.8 meq/L | PL ([…], time 7 day): 163.8 mg/dL | RALB ([…], time 7 day): 2.7 g/dL | TBIL ([…], time 7 day): 0.046 mg/dL | TC ([…], time 7 day): 78 mg/dL | TG ([…], time 7 day): 126 mg/dL | TP ([…], time 7 day): 5.9 g/dL | gamma-GTP ([…], time 7 day): 0.8 IU/L | A/G ([…], time 14 day): 0.8 | ALP ([…], time 14 day): 1397.6 IU/L | ALT ([…], time 14 day): 44 IU/L | AST ([…], time 14 day): 69 IU/L | BUN ([…], time 14 day): 16.8 mg/dL | CRE ([…], time 14 day): 0.2 mg/dL | Ca ([…], time 14 day): 10.9 mg/dL | Cl ([…], time 14 day): 105.8 meq/L | DBIL ([…], time 14 day): 0.018 mg/dL | GLC ([…], time 14 day): 196 mg/dL | IP ([…], time 14 day): 6.8 mg/dL | K ([…], time 14 day): 4 meq/L | LDH ([…], time 14 day): 65 IU/L | Na ([…], time 14 day): 142.8 meq/L | PL ([…], time 14 day): 154 mg/dL | RALB ([…], time 14 day): 2.7 g/dL | TBIL ([…], time 14 day): 0.05 mg/dL | TC ([…], time 14 day): 70 mg/dL | TG ([…], time 14 day): 156.2 mg/dL | TP ([…], time 14 day): 6.1 g/dL | gamma-GTP ([…], time 14 day): 0.4 IU/L | A/G ([…], time 28 day): 0.8 | ALP ([…], time 28 day): 1354.6 IU/L | ALT ([…], time 28 day): 36 IU/L | AST ([…], time 28 day): 61.2 IU/L | BUN ([…], time 28 day): 17.6 mg/dL | CRE ([…], time 28 day): 0.2 mg/dL | Ca ([…], time 28 day): 10.6 mg/dL | Cl ([…], time 28 day): 103.8 meq/L | DBIL ([…], time 28 day): 0.018 mg/dL | GLC ([…], time 28 day): 180.6 mg/dL | IP ([…], time 28 day): 6.2 mg/dL | K ([…], time 28 day): 3.8 meq/L | LDH ([…], time 28 day): 55.4 IU/L | Na ([…], time 28 day): 142.8 meq/L | PL ([…], time 28 day): 156.2 mg/dL | RALB ([…], time 28 day): 2.8 g/dL | TBIL ([…], time 28 day): 0.056 mg/dL | TC ([…], time 28 day): 77 mg/dL | TG ([…], time 28 day): 130.4 mg/dL | TP ([…], time 28 day): 6.3 g/dL | gamma-GTP ([…], time 28 day): 0 IU/L
